Data on one compound can be found in US20050287114A1, “Water-soluble polymeric bone-targeting drug delivery system” (University of Utah Research Foundation, priority 2003, published 2005).

The nature of data set [1]: water solubility of lyophilized product. Type of data set: physicochemical. On the procedure: TC was first transformed into anhydrotetracycline; an amino group was then introduced into the D ring. Stoel, L. et al.(1976) J. Pharm. Sci. 65, 1794-1799; Menachery, M. D. & Cava, M. P. (1984) Can. J. Chem. 62, 2583-2584. Because of the low activity of the aromatic amine, a glycine was coupled to the D ring of the TC molecule in order to introduce a more reactive primary amine by the following procedure. Boc-glycine (192.7 mg, 1.1 mmol), 9-NH2-ATC (514 mg, 1 mmol) and methyl morpholine (MM, 220 μL, 2 mmol) were dissolved in DMF (8 mL) and stirred at 0° C. for 1 h. DCC (227 mg, 1.1 mmol, in 2 mL DCM) was added to the solution and stirred for 1 h. The temperature of the solution was then raised to R.T. and stirred overnight. The resulting suspension was filtered. The solid (product and DCU) was washed three times with ethyl acetate and dried under vacuum. The Boc protection was removed with TFA. DCU was removed to yield 360 mg of 9-Gly-ATC (lyophilized), which is water-soluble.

Data set [2] is described as follows: in vitro bone-targeting capacity: binding of conjugates to hydroxyapatite. The settings on record: conjugate 1 mg/mL in phosphate buffered saline, 5 mg HA, 1 h at R.T., UV absorbance of supernatant.
Method: Conjugates were dissolved in phosphate buffered saline to give a concentration of 1 mg/mL. The conjugate solution (100 μL) and 100 μL of the same buffer were incubated with 5 mg of hydroxyapatite (HA, Bio-Gel HTP, DNA grade; BIO-RAD, Hercules, Calif.) for 1 h at R.T. The solution was then centrifuged. The UV absorbance at certain wavelengths (FITC, 490 nm; 9-Gly-ATC, 450 nm) of the supernatant was monitored with an ELISA plate reader. Background correction was applied. The data presented is the average of three samples. The binding efficiency is expressed as the percentage of conjugates bound to HA (FIG. 4).

`Cc1c2c(c(O)c3c(O)c(NC(=O)CN)ccc13)C(=O)C1(O)C(=O)C(C(N)=O)=C(O)C(N(C)C)C1C2` (centres unmarked) [9-Gly-ATC, N-(9-aminoanhydrotetracycline)glycyl amide]: the water solubility result in data set [1] was “water-soluble”. The “binding to HA (percentage of conjugates bound to HA)” value in data set [2] is “slightly lower values”.
